{"source": "paper PMC8360069", "about": "“Prediction and Validation of a Druggable Site on Virulence Factor of Drug Resistant Burkholderia cenocepacia” (Chemistry (Weinheim an Der Bergstrasse, Germany), 2021)", "assay_type_in_all_cases": "binding", "key": {"BC2L-C [1]": {"target": "T1, BC2L-C (Burkholderia cenocepacia, UniProt B4EH86)", "T1 construct": "gene BCAM0185; N-terminal domain (BC2L-C-nt)", "T1 sequence (B4EH86 entry or part of it)": "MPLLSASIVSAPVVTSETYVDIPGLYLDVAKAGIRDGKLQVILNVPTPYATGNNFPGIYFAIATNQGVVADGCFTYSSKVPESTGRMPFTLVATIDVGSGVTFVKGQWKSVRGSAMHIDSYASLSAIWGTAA", "experiment": "ITC; X-ray crystal structure ([…] Å, with Globo H); STD-NMR"}, "BC2L-C [2]": {"target": "T1, BC2L-C", "experiment": "STD-NMR in the presence of Me-α-L-Fuc (no density in soaked crystals)"}, "BC2L-C [3]": {"target": "T1, BC2L-C", "experiment": "STD-NMR; thermal shift assay (about +[…] °C)"}}, "data": [{"smiles": "Cc1nccn1-c1cccc(CN)c1", "note": "[KL3, 3‐(2‐Methyl‐1H‐imidazol‐1‐yl) benzylamine]", "values": [{"measurement": "Kd", "setting": "BC2L-C [1]", "value": 877, "unit": "µM"}]}, {"smiles": "NC(CO)Cc1ccccc1", "note": "(stereo not drawn) [KL9]", "values": [{"measurement": "STD-NMR in the presence of Me-α-L-Fuc (no density in soaked crystals)", "setting": "BC2L-C [2]", "value": "confirming the binding event for the three fragments in the BC2L‐C‐nt/fucose complex"}]}, {"smiles": "CO[C@@H]1O[C@@H](C)[C@@H](O)[C@@H](O)[C@@H]1O", "note": "[Methyl α-L-fucoside]", "values": [{"measurement": "STD-NMR; thermal shift assay (about +2 °C)", "setting": "BC2L-C [3]", "value": "Me‐α‐L‐Fuc was initially tested alone in the experiment, verifying that it binds BC2L‐C‐nt"}]}]}
